In patent US20030087881A1, “Irreversible inhibitors of tyrosine kinases” (priority 1997, published 2003):

Assays:
[1] = tested on: A431 human epidermoid carcinoma cells; details: 2 μM compound for 1 or 2 hours, washed free, EGF stimulation
Protocol: (§1) Extracts were made by lysing the monolayers in 0.2 mL of boiling Laemlli buffer (2% sodium dodecyl sulfate, 5% beta-mercaptoethanol, 10% glycerol and 50 mM tris[hydroxymethyl]aminomethane (Tris), pH 6.8), and the lysates were heated to 100° C. for 5 minutes. Proteins in the lysate were separated by polyacrylamide gel electrophoresis and electrophoretically transferred to nitrocellulose. The membrane was washed once in 10 mM Tris, pH 7.2, 150 mM NaCl, 0.01% Azide (TNA), and blocked overnight in TNA containing 5% bovine serum albumin and 1% ovalbumin. The membrane was blotted for 2 hours with antiphosphotyrosine antibody (UBI, 1 μg/mL in blocking buffer) and then washed twice in TNA, once in TNA containing 0.05% Tween-20 detergent and 0.05% nonidet P-40 detergent and twice in TNA. […] Band intensities were determined with a Molecular Dynamics laser densitometer.

[2] = biological target: Human EGF receptor tyrosine kinase (Homo sapiens, UniProt P00533); details: read-out: IC50 (nM) EGFr (isolated enzyme assay); isolated enzyme from A431 cells; 10 μM ATP
Sequence of Human EGF receptor tyrosine kinase (P00533 25-1210): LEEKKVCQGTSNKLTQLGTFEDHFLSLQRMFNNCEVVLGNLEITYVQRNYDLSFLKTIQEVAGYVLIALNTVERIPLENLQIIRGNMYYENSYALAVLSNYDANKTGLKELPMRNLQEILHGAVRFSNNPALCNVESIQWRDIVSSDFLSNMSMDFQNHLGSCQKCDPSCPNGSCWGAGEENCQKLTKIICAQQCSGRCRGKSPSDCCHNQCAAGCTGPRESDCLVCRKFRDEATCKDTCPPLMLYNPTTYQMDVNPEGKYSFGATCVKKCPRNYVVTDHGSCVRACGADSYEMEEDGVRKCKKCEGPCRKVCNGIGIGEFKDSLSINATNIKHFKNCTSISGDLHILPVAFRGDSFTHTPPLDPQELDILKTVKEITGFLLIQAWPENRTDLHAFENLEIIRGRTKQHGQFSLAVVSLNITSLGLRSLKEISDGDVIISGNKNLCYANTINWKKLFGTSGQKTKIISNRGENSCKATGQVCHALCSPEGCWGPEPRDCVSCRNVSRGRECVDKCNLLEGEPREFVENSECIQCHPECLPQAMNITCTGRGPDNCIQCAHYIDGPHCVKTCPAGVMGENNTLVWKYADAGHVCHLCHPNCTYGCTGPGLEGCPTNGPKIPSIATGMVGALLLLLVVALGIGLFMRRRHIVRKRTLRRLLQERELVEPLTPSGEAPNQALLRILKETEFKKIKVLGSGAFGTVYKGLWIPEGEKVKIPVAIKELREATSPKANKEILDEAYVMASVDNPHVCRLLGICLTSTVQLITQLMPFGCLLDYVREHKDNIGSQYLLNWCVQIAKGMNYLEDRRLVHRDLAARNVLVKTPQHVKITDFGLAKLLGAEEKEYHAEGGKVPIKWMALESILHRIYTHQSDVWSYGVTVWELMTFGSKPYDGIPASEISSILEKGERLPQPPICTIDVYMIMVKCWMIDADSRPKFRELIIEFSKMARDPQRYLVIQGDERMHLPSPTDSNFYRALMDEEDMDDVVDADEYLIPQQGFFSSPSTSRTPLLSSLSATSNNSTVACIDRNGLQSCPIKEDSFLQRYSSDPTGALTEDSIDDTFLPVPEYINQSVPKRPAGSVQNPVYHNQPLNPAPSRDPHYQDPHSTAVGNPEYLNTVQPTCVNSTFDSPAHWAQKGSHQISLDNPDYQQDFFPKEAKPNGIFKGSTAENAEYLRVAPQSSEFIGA
Protocol: Human EGF receptor tyrosine kinase was isolated from A431 human epidermoid carcinoma cells by the following method. Cells were grown in roller bottles in dMEM/F12 media (Gibco/BRL) containing 10% fetal calf serum. Approximately 10^9 cells were lysed in 2 volumes of buffer containing 20mM N-[2-hydroxyethyl]piperazine-N′-[2-ethane sulfonic acid](Hepes), pH 7.4, 5 mM ethylene glycol-bis(β-aminoethyl ether) N,N,N′,N′-tetraacetic acid (EGTA), 1% Triton X-100, 10% glycerol, 0.1 mM sodium orthovanadate, 5 mM sodium fluoride, 4 mM pyrophosphate, 4 mM benzamide, 1 mM dithiothreitol (DTT), 80 μg/mL aprotinin, 40 μg/mL leupeptin, and 1 mM phenylmethyl sulfonyl fluoride (PMSF). After centrifugation at 25,000×g for 10 minutes, the supernatant was applied to a fast Q sepharose column (Pharmacia Biotech., Inc., Piscataway, N.J.) and eluted with a linear gradient from 0.1 M NaCl to 0.4 M NaCl in 50 mM Hepes, 10% glycerol, pH 7.4. Enzyme active fractions were pooled, divided into aliquots, and stored at −100° C.
Enzyme assays for IC50determinations were performed in 96-well filter plates (Millipore MADVN6550, Millipore, Bedford, Mass.). […] The wells are then washed 5 times with 0.2 mL of 10% TCA and ^32P incorporation determined with a Wallac beta plate counter (Wallac, Inc., Gaithersburg, Pa.).

[3] = tested on: A431 human epidermoid carcinoma cells; experiment: cells; details: A-431, read-out: IC50 (nM) A431 Cell Autophosphorylation Assay
Protocol: as §1
Duplicate sets of cells were treated with a range of concentrations of the designated compound to be tested as an inhibitor for 15 minutes. The cells were then stimulated with 100 ng/mL of EGF for 5 minutes and extracts made as described under the Western Blotting Procedure.

C=CC(=O)Nc1ccc2ncnc(N3CCc4ccc(Br)cc43)c2c1 [Example 1, N-[4-(6-Bromo-2,3-dihydroindol-1-yl)quinazolin-6-yl]acrylamide]
Irreversibility Test [1]: yes, irreversible
IC50 [2]: 0.4 nM
IC50 [3]: 9.9 nM
melting point: 214 to 216 °C
